# Measurements reported in article PMC2856764 (Human immunology, 2010).
# Ends that are not written are not given here.
# How the values were obtained:
# Assay in all cases: biochemical
# Format in all cases: binding
# [1] = biological target: HLA-A*0301 (Homo sapiens, UniProt P04439)
# [2] = biological target: HLA-A*6801 (Homo sapiens, UniProt P04439, A269V/D185E/E176V/E277Q/E87N/F33Y/G231S/I121M/I166T/I218V/L180W/L300P/L318F/N151K/P208A/P217A/Q86R/R169H/T345S)
# [3] = biological target: HLA-A*3101 (Homo sapiens, UniProt P04439, A270S/D185E/E176V/E277Q/F33T/G231S/G80R/H175R/I121M/I218V/I322F/K168Q/L300P/L318F/M331R/P217A/Q94H/R138Q/T323A/T345S/T97I/V358M)
# [4] = biological target: HLA-A*1101 (Homo sapiens, UniProt P04439, A114D/D185E/E176A/F33Y/L180Q/S129P/T187R)
# [5] = biological target: HLA-A*3301 (Homo sapiens, UniProt P04439, A270S/D185E/E176V/E277Q/E87N/F33T/G231S/H175R/I121M/I218V/I322F/K168Q/K210R/L300P/L318F/M331R/P217A/Q86R/Q94H/R138Q/T323A/T345S/T97I/V358M/Y195H)
# [6] = biological target: HLA-A*3002 (Homo sapiens, UniProt P04439, D101N/D140H/D185E/E176R/F33S/G80R/H175R/K168Q/Q94H/R138E/R41S/V100E)
# [7] = biological target: HLA-A*0101 (Homo sapiens, UniProt P04439, A114D/A174V/A182V/D101N/D185E/E176A/E190D/L180R/Q94H/R68K/S129P/T187R/V100A/V91M/W191G)
# [8] = biological target: HLA-A*2601 (Homo sapiens, UniProt P04439, A114D/A173T/A270S/D101N/D185E/E277Q/E87N/F33Y/G231S/I121R/I218V/K168Q/L180W/L300P/L318F/P208A/P217A/Q86R/Q94H/R138Q/S129P/T187R/T323A/T345S/V100A/V358M)
# [9] = biological target: HLA-A*2902 (Homo sapiens, UniProt P04439, A270S/D101N/D185E/E176V/E277Q/E87Q/F33T/G231S/H175R/I121M/I218V/I322F/K168Q/L300P/L318F/M331R/P208A/P217A/Q86L/T323A/T345S/V100A/V358M)
# [10] = biological target: HLA-A*0206 (Homo sapiens, UniProt P04439, D140Y/D185E/D98H/E176V/E277Q/F33Y/G131W/G231S/I119V/I121R/I166T/I218V/L300P/L318F/N151K/N90K/P208A/P217A/Q86G/Q94H/R138H/R169H/T345S)
# [11] = biological target: HLA-A*0201 (Homo sapiens, UniProt P04439, D140Y/D185E/D98H/E176V/E277Q/G131W/G231S/I119V/I121R/I166T/I218V/L300P/L318F/N151K/N90K/P208A/P217A/Q86G/Q94H/R138H/R169H/T345S)
# [12] = biological target: HLA-A*6802 (Homo sapiens, UniProt P04439, A269V/D140Y/D185E/E176V/E277Q/E87N/F33Y/G231S/I121R/I166T/I218V/L180W/L300P/L318F/N151K/P208A/P217A/Q86R/R138H/R169H/S129P/T345S/V36M)
# [13] = biological target: HLA-A*0203 (Homo sapiens, UniProt P04439, A173T/D140Y/D185E/D98H/E277Q/G131W/G231S/I119V/I121R/I166T/I218V/L180W/L300P/L318F/N151K/N90K/P208A/P217A/Q86G/Q94H/R138H/R169H/T345S)
# [14] = biological target: HLA-A*0202 (Homo sapiens, UniProt P04439, D140Y/D185E/D98H/E176V/E277Q/G131W/G231S/I119L/I121R/I166T/I218V/L180W/L300P/L318F/N151K/N90K/P208A/P217A/Q67R/Q86G/Q94H/R138H/R169H/T345S)
# [15] = biological target: HLA-B*4501 (Homo sapiens, UniProt P01889, A329T/A65T/A93T/A95T/C349S/D138N/D201E/D98Y/E176V/E187L/E204Q/E69K/H137Y/K202T/L119W/N87E/Q56L/Q94N/R155S/R180D/S121R/S35A/S48T/V127L/V306I/V36M/W191S/Y140L/Y33H/Y91S)
# [16] = biological target: HLA-B*4001 (Homo sapiens, UniProt P01889, A65T/A93T/A95T/D138N/D98Y/E176V/E69K/N87E/Q56L/Q94N/R180L/S121R/S35A/S48T/T167S/V36M/W171L/Y33H/Y91S)
# [17] = biological target: HLA-B*4002 (Homo sapiens, UniProt P01889, A65T/A93T/A95T/D138N/D201E/D98Y/E176V/E204Q/E69K/K202T/N87E/Q56L/Q94N/R180L/S48T/Y33H/Y91S)
# [18] = biological target: HLA-B*4402 (Homo sapiens, UniProt P01889, A223V/A65T/A93T/A95T/D201E/D98Y/E176V/E187L/E204Q/E69K/G107R/H137Y/K202T/L105A/L119I/N104T/N87E/Q56L/Q94N/R106L/R155S/R180D/S101N/S121R/S35A/S48T/T118I/V36M/W191S/Y140D/Y91S)
# [19] = biological target: HLA-B*1801 (Homo sapiens, UniProt P01889, A329T/A93T/A95T/C349S/D201E/D54G/D98Y/E176V/E187T/E204Q/E69T/K202T/Q94N/R155S/R180L/S121R/V306I/Y140S/Y195H/Y33H/Y91S)
# [20] = biological target: HLA-B*4403 (Homo sapiens, UniProt P01889, A223V/A65T/A93T/A95T/D201E/D98Y/E176V/E187L/E204Q/E69K/G107R/H137Y/K202T/L105A/L119I/N104T/N87E/Q56L/Q94N/R106L/R155S/R180L/S101N/S121R/S35A/S48T/T118I/V36M/W191S/Y140D/Y91S)
sequence,measurement,setting,value
KLVGINMSKK [PB1.471],IC50,[1],14 nM
same,IC50,[2],1610 nM
same,IC50,[3],518 nM
same,IC50,[4],315 nM
same,IC50,[5],> 10000 nM
LVSDGGPNLY [PB1.590],IC50,[6],57 nM
same,IC50,[7],399 nM
same,IC50,[8],156 nM
same,IC50,[9],479 nM
NMLSTVLGV [PB1.413],IC50,[10],3 nM
same,IC50,[11],4 nM
same,IC50,[12],1060 nM
same,IC50,[13],11 nM
same,IC50,[14],5 nM
QEIRTFSFQL [NS2.184],IC50,[15],380 nM
same,IC50,[16],135 nM
same,IC50,[17],68 nM
same,IC50,[18],102 nM
same,IC50,[19],515 nM
same,IC50,[20],431 nM
RLFFKCIYRR [M2.45],IC50,[1],135 nM
same,IC50,[2],88 nM
same,IC50,[3],5 nM
same,IC50,[4],294 nM
same,IC50,[5],238 nM
SEQAAEAMEV [M1.196],IC50,[15],35 nM
same,IC50,[16],2670 nM
same,IC50,[17],85 nM
same,IC50,[18],2640 nM
same,IC50,[19],1900 nM
same,IC50,[20],7670 nM
SFSFGGFTFK [PB2.322],IC50,[1],74 nM
same,IC50,[2],60 nM
same,IC50,[3],19 nM
same,IC50,[4],7 nM
same,IC50,[5],85 nM
SVQPTFSVQR [NP.407],IC50,[1],> 10000 nM
same,IC50,[2],84 nM
same,IC50,[3],21 nM
same,IC50,[4],37 nM
same,IC50,[5],181 nM
SVQRNLPFER [NP.413],IC50,[1],> 10000 nM
same,IC50,[2],19 nM
same,IC50,[3],104 nM
same,IC50,[4],411 nM
same,IC50,[5],321 nM
TEVETYVLSI [M1.5],IC50,[15],504 nM
same,IC50,[16],133 nM
same,IC50,[17],195 nM
same,IC50,[18],6880 nM
same,IC50,[19],136 nM
same,IC50,[20],247 nM
VLRGFLILGK [PB2.690],IC50,[1],10 nM
same,IC50,[2],1160 nM
same,IC50,[3],85 nM
same,IC50,[4],460 nM
same,IC50,[5],> 10000 nM
YSHGTGTGY [PB1.30],IC50,[6],131 nM
same,IC50,[7],199 nM
same,IC50,[8],5 nM
same,IC50,[9],486 nM
